The record followed here is publication PMC12339163, “Combining Plant Bioactives With Antibiotics for Enhanced Antibiofilm Activity Against Uropathogenic Staphylococcus spp. and Cytotoxicity Evaluation” (Advances in Pharmacological and Pharmaceutical Sciences, 2025).

By MBC is commonly meant the lowest tested concentration that kills the bacteria rather than only halting them. As usually defined, the MIC is the smallest concentration in the dilution series that meets the test's criterion for growth inhibition. As a reminder, the minimal effective concentration is the lowest level tested that produced the effect sought. High values mean weaker potency, low ones greater potency.

In assay [1] the test system is S. saprophyticus. As to the kind of experiment: MIC and MBC, broth microdilution. It counts as cell-based, Staphylococcus saprophyticus. To be noted: geometric mean, S. saprophyticus (n = 3). Here is the method:
(§1) Seven clinical isolates of Staphylococcus spp. including 2 S. aureus, 3 S. saprophyticus, and 2 S. epidermidis were used. They were isolated from urine samples in our previous study. Two reference strains (S. aureus ATCC1026 and S. epidermidis ATCC35984) obtained from the American Type Culture Collection were also included. They were kept in the mixture of glycerol and Mueller Hinton Broth (MHB) (1:1) at −20°C, and the activation was achieved using the streak technique on Mueller Hinton agar (MHA) medium.
(§2) The MICs of ATBs and NPs were determined by the broth microdilution method as previously described. NPs and ATBs were, respectively, prepared at 4096 µg/mL and 512 µg/mL and serially diluted twofold with MHB in a 96-well microplate at a volume of 100 µL. Then, the wells were filled with 100 µL of inoculum (1.5 × 10^6 CFU/mL) to give final concentrations ranging from 1024 µg/mL to 0.5 µg/mL and 128 µg/mL to 0.062 µg/mL of NPs and ATBs, respectively. The microplates were incubated for 24 h at 37°C. Wells containing only bacterial inoculum were used as the negative control. After incubation, a volume of 40 µL of INT solution (0.2 mg/mL) was added to each well, and the microplate was incubated at 37°C for 30 min. Viable bacteria cells change the yellow dye of INT to a pink color. The MIC was considered as the lowest concentration of the sample at which there was no change in the coloration of the medium, corresponding to the complete inhibition of microbial growth.
(§3) All tests were performed in triplicate.
For orientation: Dilution methods test growth across graded concentrations, often in twofold steps.

Assay [2] has as its system S. epidermidis. As to the kind of experiment: MIC and MBC, broth microdilution. It is filed as cell-based, Staphylococcus epidermidis. Conditions: geometric mean, S. epidermidis (n = 3). Here is the method: as §1, §2, §3
In assay [3] the test system is S. aureus biofilm. As to the kind of experiment: Biofilm inhibition assay (MBIC, MTT). It is filed as cell-based, Staphylococcus aureus. Conditions: geometric mean, S. aureus (n = 3); for minimal effective concentration: Staphylococcus aureus, 24 h. Here is the method: (§4) The biofilm formation inhibitory activity of NPs and ATBs was carried out according to the method previously described. A total of 100 µL of bacterial inoculum (1.5 × 10^6 CFU/mL) was used, and 100 µL of each sample was added to the microplate to achieve final concentrations ranging from 0.25 µg/mL to 128 µg/mL for ATBs and from 8 µg/mL to 1024 µg/mL for NPs. Then, the microplate was incubated at 37°C for 24 h. After incubation, the plates were gently emptied and washed three times with a phosphate buffer solution at pH 7.2. Then, the MTT solution (0.5 mg/mL) prepared in PBS was introduced into each well, and the microplate was further incubated at 37°C for 24 h. Untreated wells containing bacterial suspension and MHB supplemented with 1% glucose were considered positive controls, and wells containing only MHB+1% glucose without bacteria were used as blanks. After incubation, the MTT solution was aspirated, then 150 µL of DMSO was introduced to dissolve the formazan crystal formed by viable bacteria, and the optical density (OD) was measured at 570 nm using a microplate reader (VERSA-max). The percentage of biofilm inhibition was calculated using the formula below, and the minimal biofilm inhibitory concentration (MBIC) was recorded as the lowest concentration of NPs or ATBs that inhibited 100% of biofilm:(1) % biofilm inhibition=ODcontrol−ODblank−ODtest−ODblank/ODcontrol−ODblank×100.

Assay [4] has as its system S. saprophyticus biofilm. As to the kind of experiment: Biofilm inhibition assay (MBIC, MTT). To be noted: geometric mean, S. saprophyticus (n = 3); for minimal effective concentration: Staphylococcus saprophyticus, 24 h. It counts as cell-based, Staphylococcus saprophyticus. Here is the method:
as §4

Assay [5] concerns S. epidermidis biofilm. As to the kind of experiment: Biofilm inhibition assay (MBIC, MTT). It is filed as cell-based, Staphylococcus epidermidis. Conditions: geometric mean, S. epidermidis (n = 3); for minimal effective concentration: Staphylococcus epidermidis, 24 h. Here is the method: as §4
Assay [6] concerns planktonic cells of Staphylococcus aureus. As to the kind of experiment: Checkerboard combination assay, planktonic cells. To be noted: S. aureus, mean; for MIC: Staphylococcus aureus. It is filed as cell-based. Here is the method: (§5) The checkerboard assay, as previously described, was used for the determination of the fractional inhibitory concentration index (FICI). Briefly, 50 µL of MHB was distributed into each well of a 96-well microplate. ATBs were serially diluted along the abscissa, and NPs were serially diluted along the ordinate. Then, 100 µL of bacterial inoculum (1.5 × 10^6 CFU/mL) was added to each well and incubated at 37°C for 24 h. The final concentration ranged from 0.125 to 128 µg/mL for ATBs and 4–512 µg/mL for NPs. After incubation, a volume of 40 µL of INT solution (0.2 mg/mL) was added to each well, and the microplate was incubated at 37°C for 30 min. The wells containing bacterial inoculum and MHB were used as a positive control, while wells containing only MHB + 1% glucose were used as a negative control and used as a blank. Viable bacteria cells change the yellow dye of INT to a pink color. The MICs were considered to be the lowest NP concentrations that prevented the color change medium. Subsequently, the FICI was calculated according to the formula FICI = (MIC of the ATBs in combination/MIC of the ATBs alone) + (MIC of a natural substance in combination/MIC of the natural substance alone). FICI values were interpreted as follows: synergy when FICI ≤ 0.5; additive when 0.5 < FICI ≤ 1; indifference when 1 < FICI ≤ 4; and antagonism when FICI > 4.

The test system of assay [7] is planktonic cells of Staphylococcus saprophyticus. Kind of assay: Checkerboard combination assay, planktonic cells. To be noted: S. saprophyticus, mean; for MIC: Staphylococcus saprophyticus. It counts as cell-based. Here is the method:
as §5

For assay [8], the system named is Staphylococcus epidermidis biofilm. As to the kind of experiment: Checkerboard combination assay, biofilm eradication. It counts as cell-based. Here is the method:
The effect of the combination of ATBs with NPs on the preformed biofilm was evaluated by determining the FICI, as described above for biofilm formation, with slight modifications. After biofilm formation for 24 h, the plate was gently emptied and washed three times with PBS. Then, 50 µL of ATBs and 50 µL of NPs were introduced to the plate. The final concentration ranges from 0.0625 to 128 µg/mL and from 4 to 512 µg/mL for ATBs and NPs, respectively, and is incubated at 37°C for 24 h. After incubation, the medium was gently removed, and the plate was washed three times with PBS. At the end of the incubation time, the MTT reduction assay was performed, and the MBEC was determined. To assess the effect of the combination, the FICI was calculated and interpreted as described above.

Setting [9] is: Staphylococcus saprophyticus, antibiotics, read-out: MBC.
The mark [10] stands for this setting: Staphylococcus saprophyticus, read-out: MIC.
Setting [11] is: Staphylococcus epidermidis, antibiotics, read-out: MBC.
Where [12] appears, read: Staphylococcus epidermidis, read-out: MIC.
[13] abbreviates: S. epidermidis biofilm eradication, antibiotic alone, mean MBEC.
Where [14] appears, read: Staphylococcus saprophyticus, natural products, read-out: MBC.
[15] abbreviates: Staphylococcus epidermidis, natural products, read-out: MBC.

In brackets after ≈: the same amount, converted by molar mass. Several values for one entry are separate records, joined by “and”; a condition that tells them apart may be missing. Equal entries are not always repeated. Where two headings read alike, the source gives them in different places. Bounds are passed on as bounds.

Consider `C[C@H]1c2cccc(O)c2C(=O)C2=C(O)[C@]3(O)C(=O)C(C(N)=O)=C(O)[C@@H](N(C)C)[C@@H]3[C@@H](O)[C@@H]21` [Doxycycline, doxycycline], for which the results for the MBC in assay [1] (setting [9]) and in assay [2] (setting [11]) were more than 128 µg/mL and 8 µg/mL (≈ 18 µM), respectively. Besides, the MIC came to 32.2 µg/mL (≈ 72.4 µM) in assay [1] (setting [10]); 7 µg/mL (≈ 15.8 µM) in assay [2] (setting [12]); 6.16 µg/mL in assay [6] (24 h, read-out: MIC alone, ATB); 6.16 µg/mL in assay [6] (read-out: MIC alone, ATB); 32.2 µg/mL in assay [7] (24 h, read-out: MIC alone, ATB); 32.2 µg/mL in assay [7] (read-out: MIC alone, ATB). The minimal effective concentration in assay [3] turned out to be 2.16 µg/mL; in assay [4], 0.5 µg/mL; in assay [5], 3.08 µg/mL. The “MBEC Alone ATB” value in assay [8] (setting [13]) was found to be 16 µg/mL; in assay [8] (S. epidermidis, biofilm eradication, mean), 16 µg/mL.

With `CC[C@H]1OC(=O)[C@H](C)[C@@H](O[C@H]2C[C@@](C)(OC)[C@@H](O)[C@H](C)O2)[C@H](C)[C@@H](O[C@@H]2O[C@H](C)C[C@H](N(C)C)[C@H]2O)[C@](C)(O)C[C@@H](C)C(=O)[C@H](C)[C@@H](O)[C@]1(C)O` [Erythromycin, erythromycin], the MBC in assay [1] (setting [9]) and in assay [2] (setting [11]) was more than 128 µg/mL each time. Moreover, the MIC in assay [1] (setting [10]) stood at 4.66 µg/mL (≈ 6.35 µM); in assay [2] (setting [12]) it was 32.7 µg/mL (≈ 44.5 µM); in assay [6] (24 h, read-out: MIC alone, ATB), 108 µg/mL; in assay [6] (read-out: MIC alone, ATB), 108 µg/mL; in assay [7] (24 h, read-out: MIC alone, ATB), 4.66 µg/mL; in assay [7] (read-out: MIC alone, ATB) it was 4.66 µg/mL. The minimal effective concentration in assay [3] is 42.8 µg/mL; in assay [4], 27.3 µg/mL; in assay [5] it was 24 µg/mL. In addition, in assay [8] (setting [13]), the “MBEC Alone ATB” value was 18.66 µg/mL.

As to `O=C(O)c1cc(O)c(O)c(O)c1` [Gallic acid, 3,4,5-trihydroxybenzoic acid], the MIC in assay [1] (setting [10]) turned out to be 427 µg/mL (≈ 2510 µM); in assay [2] (setting [12]), 427 µg/mL (≈ 2510 µM); in assay [6] (24 h, read-out: MIC alone, NPs) it was 427 µg/mL; in assay [6] (read-out: MIC alone, NPs), 427 µg/mL; in assay [7] (24 h, read-out: MIC alone, NPs) it was 427 µg/mL; in assay [7] (read-out: MIC alone, NPs), 427 µg/mL. Further, the minimum bactericidal concentration (MBC) in assay [1] (setting [14]) and in assay [2] (setting [15]) was more than 1020 µg/mL throughout. In addition, the minimal effective concentration came out at 512 µg/mL in assay [3], 427 µg/mL in assay [4] and 512 µg/mL in assay [5]. In addition, the “MBEC Alone NPs” value in assay [8] (S. epidermidis biofilm eradication, natural product alone, mean MBEC, listed as Gal) was 266.66 µg/mL and 298.66 µg/mL and 426.66 µg/mL.

On to `NC[C@H]1O[C@H](O[C@H]2[C@H](O)[C@@H](O[C@H]3O[C@H](CO)[C@@H](O)[C@H](N)[C@H]3O)[C@H](N)C[C@@H]2N)[C@H](O)[C@@H](O)[C@@H]1O` [Kanamycin, kanamycin], for which the values for the MBC entry in assay [1] (antibiotics) and in assay [2] (antibiotics) were “— (> 128 µg/mL for ATBs)” and 12 µg/mL (≈ 24.8 µM), respectively. Further, the minimum inhibitory concentration (MIC) in assay [1] was found to be 14 µg/mL (≈ 28.9 µM); in assay [2], 7.33 µg/mL (≈ 15.1 µM). The MBIC was found to be 1.08 µg/mL in assay [3], 4.08 µg/mL in assay [4] and 24.66 µg/mL in assay [5]. Moreover, the figures for the “MIC alone, ATB” value in assay [6] and in assay [7] were 22.66 µg/mL and 14 µg/mL, respectively. Moreover, the “MBEC Alone ATB” value in assay [8] (setting [13]) was 13.33 µg/mL.

On to `CC1=CC(=O)c2c(O)cccc2C1=O` [Plumbagin, plumbagin], for which the MIC in assay [1] (setting [10]) came to 8.66 µg/mL (≈ 46 µM); in assay [2] (setting [12]), 90.7 µg/mL (≈ 482 µM); in assay [6] (24 h, read-out: MIC alone, NPs), 4.66 µg/mL; in assay [6] (read-out: MIC alone, NPs), 4.66 µg/mL; in assay [7] (24 h, read-out: MIC alone, NPs) it was 8.66 µg/mL; in assay [7] (read-out: MIC alone, NPs), 8.33 µg/mL. In addition, the MBC in assay [1] (setting [14]) and in assay [2] (setting [15]) was more than 1020 µg/mL in each case. The figures for the minimal effective concentration in assay [3], in assay [4] and in assay [5] were 10.7 µg/mL, 6.66 µg/mL and 8 µg/mL, respectively. Also, the “MBEC Alone NPs” value in assay [8] (S. epidermidis, biofilm eradication, mean, listed as Plu) is 13.33 µg/mL and 16 µg/mL.

As to `Cc1ccc(C(C)C)c(O)c1` [Thymol, thymol], the MIC in assay [1] (setting [10]) amounted to 341 µg/mL (≈ 2270 µM); in assay [2] (setting [12]), 341 µg/mL (≈ 2270 µM); in assay [6] (24 h, read-out: MIC alone, NPs) it was 299 µg/mL; in assay [6] (read-out: MIC alone, NPs), 299 µg/mL; in assay [7] (24 h, read-out: MIC alone, NPs), 341 µg/mL; in assay [7] (read-out: MIC alone, NPs), 341 µg/mL. The MBC in assay [1] (setting [14]) and in assay [2] (setting [15]) was more than 1020 µg/mL throughout. Further, the minimal effective concentration came out at 341 µg/mL in assay [3], 128 µg/mL in assay [4] and 213 µg/mL in assay [5]. For the same molecule, the “MBEC Alone NPs” value in assay [8] (S. epidermidis biofilm eradication, natural product alone, mean MBEC, listed as Thy) was 128 µg/mL and 106.66 µg/mL.
